Tests used:
[1] = target: T1, Avi-KRAS G12R (1-169) GppNHp/RAF1 RBD-3×FLAG (52-151) (Homo sapiens, UniProt P01116, G12R); assay: Disrupting RAS-effector binding HTRF assay, Raf1 RBD-KRAS G12R-GppNHp; details: PPI HTRF, 50 nM Avi-KRAS G12R GppNHp, compound titration 30-0.0045 μM; read-out: Raf1 RBD-KRAS G12R-GppNHp disruption
T1 construct: 50 nM Avi-KRAS G12R (1-169) GppNHp/RAF1 RBD-3×FLAG (52-151)
Method: (§1) A protein:protein interaction (PPI) Homogeneous Time Resolved Fluorescence (HTRF) assay was used to determine the effectiveness of compounds of the present disclosure in disrupting KRAS protein and effector RAF1 binding.
(§2) The HTRF assay used the following reagents and proteins: (i) 50 nM Avi-KRAS G12D (1-169) GppNHp/RAF1 RBD-3×FLAG (52-151); (ii) 50 nM Avi-KRAS G12R (1-169) GppNHp/RAF1 RBD-3×FLAG (52-151); (iii) 50 nM Avi-KRAS G12V (1-169) GppNHp/RAF1 RBD-3×FLAG (52-151), (iv) 50 nM Avi-KRAS WT (1-169) GppNHp/RAF1 RBD-3×FLAG (52-151); and (v) 75 nM Avi-RAF1 RBD-3×FLAG. The assay buffer included: 50 mM Tris pH 7.5, 100 mM NaCl, 5 mM MgCl2, 0.1% BSA, […], 10% DMSO. The bead buffer included: 50 mM Tris pH 7.5, 0.01% o Tween 20. Assay volume of 20 μL was used in a 384 well plate-low volume format. Compound titration: 30-0.0045 μM, 3× dilution series.
(§3) The HTRF assay employed the following protocol:
(§4) Compounds were dispensed in assay plate (384-well, Grenier Bione #784075) using Echo (model 555) with dose response settings: 200 nL final volume, titration from 30 μM as a 10-point dilution series. Protein mix was prepared in assay buffer, and dispensed on plates, 10 μL per well, then incubated for 1 h at room temperature, with 700 rpm shaking. Reagents mix was prepared and dispensed on plates, 10 μL per well, then incubated for 1 h at room temperature, with 700 rpm shaking.
(§5) Plates were analyzed on an Envision plate reader using the following setting: Excitation 320 nm, Bandwidth 75 nM; Emission 615 nm, Bandwidth 85 nM, Gain 100%, Flashes 100, Lag 60 μs. Data were reported as percentage of activity, with DMSO as 100%. Data were plotted and analyzed using Prism 8.
(§6) The biochemical Raf1-KRAS G12D/G12R/G12V/WT-GppNHP disruption assay IC50 of selected compounds described herein are shown in Table 4.

[2] = tested on: KRAS G12V protein/effector signaling in SW620 cells; assay: Cell-based pERK HTRF assay in SW620 cell; details: Homo sapiens, SW-620, 1 h incubation
Method: pERK assay (Perkin Elmer) was used to determine the effectiveness of compounds in disrupting KRAS G12V protein/effector signaling in cells.
On Day 1, cells (SW620) were seeded into 96-well plates at 3×10^4 cells/well in 80 μL complete growth media (DMEM, 10% FBS).
(§7) On Day 2, cells were treated with compounds at 0.25% DMSO. The source plate was created with compounds diluted in media at 5-fold the final assay concentration. The compounds were run in a 9-point concentration curve starting at 10 μM, with a half-log dilution between concentrations. 20 μL was transferred onto the cell plates (final volume in wells was 100 μL). Plates were harvested after 1 h incubation by aspirating media and adding kit-supplied 1× supplemented lysis buffer to all wells (50 μL per well). Plates were then placed on a plate shaker and incubated at 850 rpm for an additional 30 min.
Antibody mixture solution was prepared by diluting aliquoted d2 and Eu Cryptate antibodies 1:20 in kit supplied detection buffer, and mixing the diluted antibodies solutions (1:1 v:v). Four μL of this solution was then added to a 384-well detection plate (Perkin Elmer; 6008230).
(§8) Samples were homogenized by pipetting up and down and then transferred (16 μL of cell lysates) from the 96-well cell culture plate to two wells of the HTRF 384-well detection plate containing the antibody solution. Plates were centrifuged (524 g for 1 min) and allowed to incubate between 4 and 24 h at room temperature. Maximum signal was reached after 4 h incubation time and remained stable over a period of 24 hours. Therefore, readings could be made between 4 and 24 h of incubation. Plates were centrifuged again (524 g for 1 min), then analyzed on the EnVision plate reader using the following settings: Excitation 320 nm, Bandwidth 75 nm; Emission 615 nm, Bandwidth 85 nm; Gain 100%; Flashes 100; Lag 60 μs.

[3] = target: T2, Avi-KRAS G12V (1-169) GppNHp/RAF1 RBD-3×FLAG (52-151) (Homo sapiens, UniProt P01116, G12V); assay: Disrupting RAS-effector binding HTRF assay, Raf1 RBD-KRAS G12V-GppNHp; details: PPI HTRF, 50 nM Avi-KRAS G12V GppNHp, compound titration 30-0.0045 μM; read-out: Raf1 RBD-KRAS G12V-GppNHp disruption
T2 construct: 50 nM Avi-KRAS G12V (1-169) GppNHp/RAF1 RBD-3×FLAG (52-151)
T2 sequence (P01116 1-169 isoform P01116-2 G12V limits assumed): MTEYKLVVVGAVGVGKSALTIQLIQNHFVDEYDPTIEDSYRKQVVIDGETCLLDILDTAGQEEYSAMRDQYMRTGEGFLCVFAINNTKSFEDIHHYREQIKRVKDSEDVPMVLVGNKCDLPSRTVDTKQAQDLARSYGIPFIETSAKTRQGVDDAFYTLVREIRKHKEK
Method: as §1, §2, §3, §4, §5, §6

[4] = target: T3, Avi-KRAS G12D (1-169) GppNHp/RAF1 RBD-3×FLAG (52-151) (Homo sapiens, UniProt P01116, G12D); assay: Disrupting RAS-effector binding HTRF assay, Raf1 RBD-KRAS G12D-GppNHp; details: PPI HTRF, 50 nM Avi-KRAS G12D GppNHp, compound titration 30-0.0045 μM; read-out: Raf1 RBD-KRAS G12D-GppNHp disruption
T3 construct: 50 nM Avi-KRAS G12D (1-169) GppNHp/RAF1 RBD-3×FLAG (52-151)
T3 sequence (P01116 1-169 isoform P01116-2 G12D limits assumed): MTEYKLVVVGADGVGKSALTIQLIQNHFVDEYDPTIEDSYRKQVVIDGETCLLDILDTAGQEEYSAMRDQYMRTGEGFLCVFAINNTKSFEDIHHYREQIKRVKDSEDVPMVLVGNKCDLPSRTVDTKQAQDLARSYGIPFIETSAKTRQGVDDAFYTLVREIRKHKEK
Method: as §1, §2, §3, §4, §5, §6

[5] = target: T4, Avi-KRAS WT (1-169) GppNHp/RAF1 RBD-3×FLAG (52-151) (Homo sapiens, UniProt P01116); assay: Disrupting RAS-effector binding HTRF assay, Raf1 RBD-KRAS WT-GppNHp; details: PPI HTRF, 50 nM Avi-KRAS WT GppNHp, compound titration 30-0.0045 μM; read-out: Raf1 RBD-KRAS WT-GppNHp disruption
T4 construct: 50 nM Avi-KRAS WT (1-169) GppNHp/RAF1 RBD-3×FLAG (52-151)
T4 sequence (P01116 1-169 isoform P01116-2 limits assumed): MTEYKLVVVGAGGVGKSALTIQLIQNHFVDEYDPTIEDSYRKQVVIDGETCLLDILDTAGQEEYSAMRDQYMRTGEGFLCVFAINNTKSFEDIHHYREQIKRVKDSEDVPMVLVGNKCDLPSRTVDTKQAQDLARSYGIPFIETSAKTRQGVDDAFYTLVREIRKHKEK
Method: as §1, §2, §3, §4, §5, §6

[6] = tested on: KRAS G12D protein/effector signaling in GP2d cells; assay: Cell-based pERK HTRF assay in GP2d cell; details: 60 min incubation
Method: A pERK assay (Perkin Elmer) was used to determine the effectiveness of compounds in disrupting KRAS G12D protein/effector signaling in cells.
On Day 1, cells (GP2d) were seeded into 96-well plates at 3×10^4 cells/well in 80 μL complete growth media (DMEM, 10% FBS).
as §7, with “[…],” for “10 μM,”, “60 min” for “1 h”
Antibody mixture solution was prepared by diluting aliquoted d2 and Eu Cryptate antibodies 1:20 in kit supplied detection buffer, and mixing the diluted antibodies solutions (1:1 v:v). 4 μL of this solution was then added to a 384-well detection plate (Perkin Elmer; 6008230).
as §8

T1 sequence (P01116 1-169 isoform P01116-2 G12R limits assumed): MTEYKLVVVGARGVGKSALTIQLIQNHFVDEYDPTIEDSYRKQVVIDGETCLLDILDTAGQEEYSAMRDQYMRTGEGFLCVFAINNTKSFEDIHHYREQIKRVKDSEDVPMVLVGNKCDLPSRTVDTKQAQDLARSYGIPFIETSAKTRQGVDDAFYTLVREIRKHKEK

SMILES | IC50 [1] [µM] | IC50 [2] [µM] | IC50 [3] [µM] | IC50 [4] [µM] | IC50 [5] [µM] | IC50 ([6]; 1 h) [µM] | IC50 [6] [µM]
N#CCCOc1nc(N2CC3CCC(C2)N3)c2cc(C(F)(F)F)c(-c3ccc(F)c4sc(N)c(C#N)c34)c(F)c2n1 [Compound 44] | > 10 | > 10 | > 10 | 1 to 10 | 1 to 10 | ≤ 0.1 | –
COC[C@H](C)Oc1nc(N2CC3CCC(C2)N3)c2cc(C(F)(F)F)c(-c3ccc(F)c4sc(N)c(C#N)c34)c(F)c2n1 [Compound 71] | – | > 10 | – | – | – | ≤ 0.1 | –
N#Cc1c(N)sc2c(F)ccc(-c3c(C(F)(F)F)cc4c(N5CC6CCC(C5)N6)nc(O[C@@H]5CCOC5)nc4c3F)c12 [Compound 68] | – | > 10 | – | – | – | ≤ 0.1 | –
N#Cc1c(N)sc2c(F)ccc(-c3c(C(F)(F)F)cc4c(N5CC6CCC(C5)N6)nc(OC5CCOCC5)nc4c3F)c12 [Compound 70] | – | > 10 | – | – | – | ≤ 0.1 | –
N#Cc1c(N)sc2c(F)ccc(-c3c(C(F)(F)F)cc4c(N5CC6CCC(C5)N6)nc(O[C@H]5CCOC5)nc4c3F)c12 [Compound 69] | – | > 10 | – | – | – | ≤ 0.1 | –
COC[C@@H](C)Oc1nc(N2CC3CCC(C2)N3)c2cc(C(F)(F)F)c(-c3ccc(F)c4sc(N)c(C#N)c34)c(F)c2n1 [Compound 67] | – | > 10 | – | – | – | ≤ 0.1 | –
COc1nc(N2CC3CCC(C2)N3)c2cc(C(F)(F)F)c(-c3ccc(F)c4sc(N)c(C#N)c34)c(F)c2n1 [Compound 1] | > 10 | – | > 10 | 1 to 10 | 1 to 10 | ≤ 0.1 | –
COc1nc(N2C[C@@H](C)NC[C@@H]2C)c2cc(C(F)(F)F)c(-c3ccc(F)c4sc(N)c(C#N)c34)c(F)c2n1 [Compound 60] | > 10 | – | > 10 | > 10 | > 10 | > 1 | –
N#Cc1c(N)sc2c(F)ccc(-c3c(C(F)(F)F)cc4c(N5CC6CCC(C5)N6)nc(N5CCNC(=O)CC5)nc4c3F)c12 [Compound 25] | > 10 | – | > 10 | 1 to 10 | 1 to 10 | 0.1 to 1 | –
N#Cc1c(N)sc2c(F)ccc(-c3c(C(F)(F)F)cc4c(N5CC6CCC(C5)N6)nc(OCC5(CO)CC5)nc4c3F)c12 [Compound 18] | 1 to 10 | – | 1 to 10 | 0.1 to 1 | 1 to 10 | ≤ 0.1 | –
N#Cc1c(N)sc2c(F)ccc(-c3c(C(F)(F)F)cc4c(N5CC6CCC(C5)N6)nc(N5CCCC5)nc4c3F)c12 [Compound 20] | > 10 | – | > 10 | 1 to 10 | 1 to 10 | 0.1 to 1 | –
N#Cc1c(N)sc2c(F)ccc(-c3c(C(F)(F)F)cc4c(N5CC6CCC(C5)N6)nc(N5CC(O)C5)nc4c3F)c12 [Compound 16] | > 10 | – | > 10 | 1 to 10 | 1 to 10 | 0.1 to 1 | –
CO[C@@H](C)COc1nc(N2CC3CCC(C2)N3)c2cc(C(F)(F)F)c(-c3ccc(F)c4sc(N)c(C#N)c34)c(F)c2n1 [Compound 72] | – | > 10 | – | – | – | ≤ 0.1 | –
N#Cc1c(N)sc2c(F)ccc(-c3c(C(F)(F)F)cc4c(N5CC6CCC(C5)N6)nc(N5CC[C@H](O)C5)nc4c3F)c12 [Compound 4] | > 10 | – | > 10 | 1 to 10 | 1 to 10 | 0.1 to 1 | –
CNc1nc(N2CC3CCC(C2)N3)c2cc(C(F)(F)F)c(-c3ccc(F)c4sc(N)c(C#N)c34)c(F)c2n1 [Compound 9] | > 10 | – | > 10 | 1 to 10 | 1 to 10 | 0.1 to 1 | –
N#Cc1c(N)sc2c(F)ccc(-c3c(C(F)(F)F)cc4c(N5CC6CCC(C5)N6)nc(OC5CC(O)C5)nc4c3F)c12 (stereo not shown) [Compound 12] | > 10 | – | > 10 | 1 to 10 | 1 to 10 | – | 0.1 to 1
N#Cc1c(N)sc2c(F)ccc(-c3c(C(F)(F)F)cc4c(N5CC6CCC(C5)N6)nc(OC[C@H]5CNC(=O)C5)nc4c3F)c12 [Compound 24] | 1 to 10 | – | 1 to 10 | 0.1 to 1 | 0.1 to 1 | ≤ 0.1 | –
CO[C@H](C)COc1nc(N2CC3CCC(C2)N3)c2cc(C(F)(F)F)c(-c3ccc(F)c4sc(N)c(C#N)c34)c(F)c2n1 [Compound 66] | – | > 10 | – | – | – | ≤ 0.1 | –
N#Cc1c(N)sc2c(F)ccc(-c3c(C(F)(F)F)cc4c(N5CC6CCC(C5)N6)nc(OCCc5ccccc5)nc4c3F)c12 [Compound 13] | > 10 | – | > 10 | 1 to 10 | > 10 | 0.1 to 1 | –
C[C@@H]1CN(c2ncnc3c(F)c(-c4ccc(F)c5sc(N)c(C#N)c45)c(C(F)(F)F)cc23)[C@@H](C)CN1 [Compound 64] | > 10 | – | > 10 | 1 to 10 | > 10 | ≤ 0.1 | –
N#Cc1c(N)sc2c(F)ccc(-c3c(C(F)(F)F)cc4c(N5CC6CCC(C5)N6)nc(OCC5(O)CC5)nc4c3F)c12 [Compound 7] | > 10 | – | > 10 | 1 to 10 | > 10 | 0.1 to 1 | –

— patent publication US20260035376A1, “COMPOSITIONS AND METHODS FOR INHIBITION OF RAS” (TheRas, Inc., priority 2022, published 2026)
